One experiment relates to NF-κB p65. The experiment is described as follows: NF-κB p65 transcription factor ELISA in TNFα-stimulated HCT-116 cells. In kind it is cell-based. The note with it: Homo sapiens, HCT-116, 4 h, read-out: inhibition of NF-κB p65 signaling. How it is done: (§1) The Nrf-2 and NF-κB transcription factors in the nuclear extracts were detected using an Nrf-2 Transcription Assay Kit (Cayman Chemical, # 600590) and NF-κB (p65 and p50) Transcription Factor Assay Kit (Cayman Chemical, # 10007889 and # 10006912). Prior to assay performance, the nuclear extracts were generated using a Nuclear Extraction Kit (Cayman Chemical, # 10009277). The assay was performed according to the manufacturer’s instructions. For all kits, the nuclear extracts were incubated overnight at 4°C. Development was carried out for 15–20 min or until the wells turned medium to dark blue. Five minutes after the stop solution had been added, the absorbance was read at 450 nm using a plate reader.
The proteasome inhibitor MG132 ([Lee and Goldberg, 1998]) was used as a positive control, as proteasomal inhibition leads to stabilization of I-κB and thus inhibits the activation of the NF-κB signaling pathway. We used a MG132 incubation period of 4 h as longer incubations have been described to activate NF-κB signaling ([Lee et al., 2013]).
FIGURE 1 Effects of NFA on the NF-κB p65 and p50 signaling pathway in colorectal cancer cells. […] Incubation for 4 h with the proteasome inhibitor MG132 (1 µM) served as the positive control. […] Values are normalized to protein concentration and unstimulated vehicle control. Data are represented as mean ± SD of (A) n = 3 (DMSO, 16.9.9, 9NOA control of right panel, 18.4.4, 18.6.7, and 18.9.10), n = 4 (all other derivatives) and (B) n = 5. Statistical significance was calculated by one-way analysis of variance (ANOVA) with Bonferroni post-test. *p ≤ 0.03, **p ≤ 0.0021, ***p ≤ 0.0002, ****p ≤ 0.0001 were considered significant versus TNF-α treatment.

The subject of the next experiment is Nrf-2. The experiment is described as follows: Nrf-2 induction in HCT-116 cells (Western blot and ELISA). The note with it: 10 µM, 4 h, HCT-116, Western blot and ELISA. In kind it is cell-based, human. As for the experimental part: as §1
HCT-116 and A549 cells were washed with 1× PBS, and cell extracts were generated using a Nuclear Extraction Kit (Cayman Chemical, #10009277) according to the manufacturer’s instructions, whereas whole-cell lysates were obtained using SDS lysis buffer (55.5 mM Tris-HCl pH 6.8, 2.2% SDS, 9% glycerol supplemented with protease (cOmplete® Protease Inhibitor Cocktail, Roche, Mannheim, Germany) and phosphatase (PhosStop® Easy Pack, Roche, Mannheim, Germany) inhibitors. Protein concentrations from the nuclear and cytosolic fractions were determined with a bicinchoninic acid (BCA) protein assay kit (Pierce™, Rockford, Illinois, United States). Cytoplasmic and nuclear extracts (100 µg each) and 30 µg whole-cell lysates were diluted in 5× Laemmli loading dye and denatured for 10 min at 95°C, loaded on a 10% SDS polyacrylamide gel, and separated by gel electrophoresis for 15 min at 80 V followed by 60 min at 120 V. The separated proteins were blotted onto a nitrocellulose membrane (Hybond-C Extra, Amersham Biosciences Ltd., UK) using the Mini Trans-Blot® module (Bio-Rad, Hercules, California, United States) for 90 min at 90 V. The membrane was blocked with Odyssey blocking buffer (Li-Cor Biosciences, Bad Homburg, Germany) or 5% milk powder in TBS-T (Tris Buffered Saline with 0.1% Tween) for 1 h at room temperature (RT). The membranes were incubated with the primary antibodies overnight at 4°C, and then with the secondary antibodies for 1 h at RT. The primary antibodies were diluted 1:1,000 and the secondary antibodies were diluted 1:10,000 to 1:20,000. […]
FIGURE 2 Effects of NFA on Nrf-2 expression in colorectal cancer cells. HCT-116 cells were treated with 10 µM NFA and tBHQ and/or MMF for 4 h, and Nrf-2 levels were analyzed by western blotting and ELISA. […] (B) Nrf-2 expression levels were evaluated with an ELISA after incubation with NFA with different carbon chain lengths and Michael acceptor positions. […]

The test system of the next experiment is HCT-116 cells. The experiment can be described thus: WST-1 cell viability assay, HCT-116. Type of experiment: cell-based, human. The note with it: WST-1 cell viability, 24 h, n.i. = no inhibition observed. How it is done: (§2) Cell viability was analyzed with the WST-1 assay based on the cleavage of the stable tetrazolium salt WST-1 by the mitochondrial reductase system. Cells were seeded in the appropriate densities in a clear 96-well plate and settled overnight at 37°C in 5% CO2. The next day, the cells were treated with NFA or the substances of interest (≤0.1% dimethyl sulfoxide [DMSO]) and incubated for 24 or 48 h at 37°C in 5% CO2. Cell viability was analyzed by adding 10 µl WST-1 solution (Roche, Basel, Switzerland) and subsequently incubating the cells at 37°C for another 30–40 min. Absorbance was measured at 450 nm with a control wavelength at 620 nm using a plate reader.
(§3) Besides targeting the NF-κB pathway, the anti-tumorigenic effects of NFA can be observed by a reduction of colorectal cancer cell viability. […] Again, the cytotoxic effects of NFA were determined in HCT-116 and HT-29 colorectal cancer cells in the present study. […] HCT-116 cells were treated with increasing concentrations of NFA differing in chain length and Michael acceptor position for 24 h, and cell viability was determined using the WST-1 assay. Due to their prolonged cell division rate and their lack of sensitivity towards NFA ([Kühn et al., 2018]), HT-29 cells were treated for 48 h to gain improved NFA activity.

The next experiment concerns HT-29 cells. The experiment is described as follows: WST-1 cell viability assay, HT-29. Type of experiment: cell-based, human. The note with it: n.i. = no inhibition observed. As for the experimental part: as §2, §3
In a further experiment the target is T1, 5-LO (Homo sapiens, UniProt P09917).
T1 construct: endogenous in cells; host or cells: human PMNL from buffy coats
T1 sequence (P09917 1-674): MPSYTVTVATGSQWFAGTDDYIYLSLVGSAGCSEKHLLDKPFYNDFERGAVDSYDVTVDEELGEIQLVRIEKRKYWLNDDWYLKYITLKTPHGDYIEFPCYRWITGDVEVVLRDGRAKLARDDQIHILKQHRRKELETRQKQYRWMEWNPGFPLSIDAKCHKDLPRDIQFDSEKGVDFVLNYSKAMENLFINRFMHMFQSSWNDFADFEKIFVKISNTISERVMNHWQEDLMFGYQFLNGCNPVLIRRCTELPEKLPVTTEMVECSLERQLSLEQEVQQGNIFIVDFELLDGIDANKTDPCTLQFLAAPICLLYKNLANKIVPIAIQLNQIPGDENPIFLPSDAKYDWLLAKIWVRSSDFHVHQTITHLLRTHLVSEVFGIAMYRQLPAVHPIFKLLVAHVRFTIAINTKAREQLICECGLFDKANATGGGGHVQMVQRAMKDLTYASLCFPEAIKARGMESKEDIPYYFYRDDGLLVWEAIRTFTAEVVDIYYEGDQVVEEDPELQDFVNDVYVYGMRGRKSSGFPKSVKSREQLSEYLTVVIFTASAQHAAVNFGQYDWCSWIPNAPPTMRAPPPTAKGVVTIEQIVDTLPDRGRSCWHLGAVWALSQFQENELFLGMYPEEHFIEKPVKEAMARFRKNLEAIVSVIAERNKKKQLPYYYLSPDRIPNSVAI
The experiment is described as follows: 5-LO product formation (LTB4, 5-HETE) in intact PMNL, A23187 + 20 µM AA. The note with it: 10 µM, A23187 2.5 µM + 20 µM AA (data not shown). In kind it is cell-based. As for the experimental part:
Buffy coats from different donors of different blood types were commercially obtained from DRK Blutspendedienst Baden-Württemberg Institute Frankfurt. Donors have given their written consent. […] Following separation, the supernatant was transferred very gently to new 50-ml tubes containing lymphocyte separation medium (LSM) and centrifuged for 10 min at 800 ×g at RT with the centrifuge brake turned off. Afterwards, the supernatant was decanted carefully to discard the platelets and monocytes. The PMNL were washed with 1× PBS before the residual erythrocytes were lysed in two cycles: the cell pellet was resuspended with 10 ml H2O and vortexed for 45 s, and lysis was stopped with 40 ml 1 × PBS. After 10-min centrifugation at 200 ×g at RT, the cycle was repeated once. The supernatant was aspirated, the cell pellet resuspended in 5 ml PBS/glucose and initially separated PMNL preparations with different blood types were finally pooled to gain a sufficient number of cells. […] The enzyme was diluted in PBS/EDTA/ATP, transferred into 5-ml glass tubes, and stored on ice. […] The reaction was stopped by placing the glass tubes on ice. The supernatants were transferred to 1.5 ml reaction tubes and stored at −80°C before LC-MS (liquid chromatography and mass spectrometry) analysis of LTB4 and HETEs as described in 2.6 at the Institute of Pharmacology, Goethe University, University Hospital, Germany. The lipid mediators LTB4, hydroxyeicosatetraenoic acids, 5(S)-HETE, 12(S)-HETE, 15(S)-HETE and 20-HETE were analyzed using liquid chromatography tandem-mass spectroscopy (LC-MS/MS). The LC-MS/MS system consisted of a 5500 QTrap mass spectrometer (Sciex, Darmstadt, Germany), operating in negative ESI mode, an Agilent 1200 HPLC system (Agilent, Waldbronn, Germany) and an HTC Pal autosampler (Chromtech, Idstein, Germany). Sample extraction of LTB4 and HETEs were performed using liquid-liquid extraction: 200 µl of the sample were gently mixed with 20 µl of methanol and 20 µl of internal standard solution and extracted twice with 600 µl ethyl acetate. […] Working solutions of all analytes were prepared in methanol containing 0.1% BHT. The calibration standards were prepared by further dilution of the working standards. […] The residues were reconstituted in 50 µl of methanol:water:BHT (50:50:10^−4, v/v/v) prior to injection into the LC-MS/MS system. Chromatographic separation was achieved using a Gemini NX C18 column (150 mm × 2 mm ID, 5 µm, Phenomenex, Aschaffenburg, Germany) with a precolumn of the same material. A linear gradient was employed at a flow rate of 0.5 ml/min and a total run time of 17.5 min. Mobile phases were A water:ammonia (100:0.05, v/v) and B acetonitrile:ammonia (100:0.05, v/v). […] All data were acquired using Analyst software v1.6.2 and quantitation was performed by MultiQuant software v3.0 (both Sciex, Darmstadt, Germany) using the internal standard method (isotope-dilution mass spectrometry). Calibration curves were calculated by linear regression with 1/x.

The structures appear in SMILES notation. Counter-ions that a name gives are not always drawn. Residues, ends and D or L forms follow the SMILES beside them. *: point of attachment. Cbz = O=C(OCc1ccccc1)*

Regarding `CC(C)C[C@@H](C=O)NC(=O)[C@H](CC(C)C)NC(=O)[C@H](CC(C)C)NC(=O)OCc1ccccc1` [MG132, reference compound] (Cbz-Leu-Leu-Leu-aldehyde), the inhibition at 1 µM in the experiment with NF-κB p65 is roughly 90%.
For `COC(=O)/C=C/C(=O)O` [MMF, monomethyl fumarate], the “induction of Nrf-2 (protein levels / signaling)” value in the experiment on Nrf-2 was “increase”.
`CC1=CC(=O)C(C(C)C)=CC1=O` [TQ, thymoquinone, reference compound]: the IC50 amounted to 4.2 ± 1.2 µM with HCT-116 cells (Homo sapiens, HCT-116) and 10.3 ± 1.1 µM in the experiment with HT-29 cells (Homo sapiens, HT-29, 48 h). The “HCT-116 (24 h) IC50” value in the experiment on HCT-116 cells is “suppressed HCT-116 and HT-29 cell viability effectively”. Moreover, the “HT-29 (48 h) IC50” value in the experiment with HT-29 cells was “suppressed HCT-116 and HT-29 cell viability effectively”.
Take `COc1ccc2c(c1)CC[C@@H]1[C@@H]2CC[C@]2(C)[C@@H](NCCCCCCN3C(=O)C=CC3=O)CC[C@@H]12` [U73122, reference compound]: on 5-LO, the “inhibition of 5-LO product formation in PMNL” value is recorded as greater than 90%.
Regarding `CC(C)(C)c1cc(O)ccc1O` [tBHQ, tert-butylhydroquinone], in the experiment on Nrf-2, the “induction of Nrf-2 (protein levels / signaling)” value is on record as “increase”.
